The values below are quoted from earlier work in patent publication US20220313139A1, “APPARATUSES AND METHODS FOR IDENTIFICATION AND TREATMENT OF PATIENTS RESPONSIVE TO ANTIPSYCHOTIC AGENT THERAPY” (priority 2019, published 2022).

The structures appear in SMILES notation.

In series [1] the test system is patients. The note with it: clinical studies, halted.
Series [2] relates to patients. To be noted: early phase II monotherapy trial.
The conditions of series [3]: in humans.

Take `CSCC[C@H](N)C(=O)N[C@@]1(C(=O)O)CS(=O)(=O)[C@H]2[C@H](C(=O)O)[C@H]21` [poma, Pomaglumetad methionil]: the “efficacy versus placebo as determined with PANSS total scores” value in series [1] is “not significantly more efficacious than the placebo”. For the same molecule, the “dosage shown to be efficacious” value in series [2] is 40 mg BID.

For the molecule `N[C@@]1(C(=O)O)CS(=O)(=O)[C@H]2[C@H](C(=O)O)[C@H]21` [pomaglumetad], the “oral absorption and bioavailability” value in series [3] was “low oral absorption and bioavailability”.
